ChEMBL document CHEMBL1201862, “PubChem BioAssay data set” (2004)
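Grown in 96-well plates, cells were treated for 48 hours with each compound at five concentrations. Insufficient inhibition: endpoint recorded as highest concentration tested. GI50: concentration for 50% inhibition of growth.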 Active and inactive are the calls of the source. Cut-off read from the data, not from the text of the source: active = GI50 up to about 1.1 µM and inactive = higher.

Key:
Assay in all cases: growth of human tumour cells (NCI), 48 h
[1] = tested on: A549
[2] = tested on: HCC 2998
[3] = tested on: OVCAR-5
[4] = tested on: ACHN
[5] = tested on: MOLT-4
[6] = tested on: SR
[7] = tested on: NCI-H522
[8] = tested on: CCRF-CEM
[9] = tested on: CAKI-1
[10] = tested on: UACC-257
[11] = tested on: HCT-116
[12] = tested on: U-251
[13] = tested on: SW-620
[14] = tested on: NCI-H23
[15] = tested on: DMS-114
[16] = tested on: LOX IMVI
[17] = tested on: OVCAR-4
[18] = tested on: BT-549
[19] = tested on: T47D
[20] = tested on: DU-145

| Structure (SMILES) | GI50 [1] | GI50 [2] | GI50 [3] | GI50 [4] | GI50 [5] | GI50 [6] | GI50 [7] | GI50 [8] | GI50 [9] | GI50 [10] | GI50 [11] | GI50 [12] | GI50 [13] | GI50 [14] | GI50 [15] | GI50 [16] | GI50 [17] | GI50 [18] | GI50 [19] | GI50 [20] |
| --- | --- | --- | --- | --- | --- | --- | --- | --- | --- | --- | --- | --- | --- | --- | --- | --- | --- | --- | --- | --- |
| CC(=O)C1Cn2c(nc3ccccc32)C[Se]1 (stereo not drawn) | 19.8 µM (inactive) | 10.3 µM (inactive) | 3.05 µM (inactive) | 3.39 µM (inactive) | 2.29 µM (inactive) | 3.1 µM (inactive) | 3.28 µM (inactive) | 3.49 µM (inactive) | 2.19 µM (inactive) | 2.48 µM (inactive) | 2.2 µM (inactive) | 2 µM (inactive) | 5.28 µM (inactive) | 2.75 µM (inactive) | 2.12 µM (inactive) | 4.29 µM (inactive) | 3.44 µM (inactive) | – | – | – |
| Cc1ccccc1-n1c(C)nc2c1C(=O)c1ccccc1C2=O | 54.6 µM (inactive) | 37.1 µM (inactive) | 72.3 µM (inactive) | 53.3 µM (inactive) | 32 µM (inactive) | 38.9 µM (inactive) | 21.2 µM (inactive) | 50.2 µM (inactive) | 42.7 µM (inactive) | 35.2 µM (inactive) | 35.1 µM (inactive) | 72.1 µM (inactive) | 40.5 µM (inactive) | 35.4 µM (inactive) | 31.1 µM (inactive) | – | 27.5 µM (inactive) | – | – | – |
| C=C1C(=O)OC2/C=C(\C)C3OC3/C=C(/C(=O)OC)C(O)C(OC(=O)C3(C)OC3C)C12 (stereo not drawn) | 15.3 µM (inactive) | 1.9 µM (inactive) | 16.7 µM (inactive) | 3.14 µM (inactive) | 0.681 µM (active) | 0.566 µM (active) | 0.193 µM (active) | 0.397 µM (active) | 1.08 µM (active) | 1.53 µM (inactive) | 1.11 µM (active) | 4.58 µM (inactive) | 0.959 µM (active) | 1.85 µM (inactive) | 0.435 µM (active) | 1.76 µM (inactive) | 2.88 µM (inactive) | – | – | – |
| COc1cc(OC(=O)c2c(O)cc(O)c(O)c2C)cc(C)c1C(=O)Oc1cc(C)c(C(=O)O)c(O)c1 | > 100 µM (inactive) | > 100 µM (inactive) | > 100 µM (inactive) | > 100 µM (inactive) | > 100 µM (inactive) | > 100 µM (inactive) | > 100 µM (inactive) | > 100 µM (inactive) | > 100 µM (inactive) | > 100 µM (inactive) | > 100 µM (inactive) | > 100 µM (inactive) | > 100 µM (inactive) | > 100 µM (inactive) | > 100 µM (inactive) | > 100 µM (inactive) | > 100 µM (inactive) | – | – | – |
| COc1ccccc1NC(=O)C1=C(C)NC(C)=C(C(=O)Nc2ccccc2OC)C1/C=C/c1ccccc1 | 80.9 µM (inactive) | > 100 µM (inactive) | > 100 µM (inactive) | 90.8 µM (inactive) | 39.4 µM (inactive) | 51.8 µM (inactive) | – | 49.1 µM (inactive) | > 100 µM (inactive) | > 100 µM (inactive) | 48.3 µM (inactive) | > 100 µM (inactive) | > 100 µM (inactive) | > 100 µM (inactive) | 61.7 µM (inactive) | > 100 µM (inactive) | 20.1 µM (inactive) | – | – | – |
| CCOC(=O)c1cc2c(OCc3ccccc3)c(OC)cc3c2c(n1)N(c1ccc(OC)cc1)C(C)C3 (stereo not drawn) | > 50 µM (inactive) | 44.4 µM (inactive) | > 50 µM (inactive) | > 50 µM (inactive) | > 50 µM (inactive) | > 50 µM (inactive) | 25.2 µM (inactive) | > 50 µM (inactive) | 23.2 µM (inactive) | – | > 50 µM (inactive) | 28.6 µM (inactive) | > 50 µM (inactive) | > 50 µM (inactive) | 38.3 µM (inactive) | > 50 µM (inactive) | 10.4 µM (inactive) | – | – | – |
| COc1cc2c(c(OC)c1OC)-c1cccc(=O)cc1C(NC(C)=O)CC2 (stereo not drawn) | 0.317 µM (active) | 0.075 µM (active) | 7.5 µM (inactive) | 0.953 µM (active) | 0.0553 µM (active) | – | 0.0382 µM (active) | 0.0414 µM (active) | 0.211 µM (active) | 0.0607 µM (active) | 0.055 µM (active) | 0.0771 µM (active) | 0.0408 µM (active) | 0.0596 µM (active) | 0.0685 µM (active) | 0.0449 µM (active) | 32.4 µM (inactive) | 0.437 µM (active) | > 100 µM (inactive) | 0.0624 µM (active) |
| Cc1cc(O)c2c(c1)C[C@@H](O)C1=C2C(=O)c2c(O)ccc(OC3CC(O)C(OC4CC(OC5CCC(OC6CC(O)C(OC7CC(OC8CCC(O)C(C)O8)C(O)C(C)O7)C(C)O6)C(C)O5)C(O)C(C)O4)C(C)O3)c2C1=O (stereo partly drawn) | 0.302 µM (active) | 0.105 µM (active) | 0.128 µM (active) | 0.0845 µM (active) | 0.0352 µM (active) | 0.0715 µM (active) | 0.0188 µM (active) | 0.0531 µM (active) | 0.138 µM (active) | 0.11 µM (active) | 0.0492 µM (active) | 0.0387 µM (active) | 0.0381 µM (active) | 0.0661 µM (active) | 0.0144 µM (active) | 0.0426 µM (active) | 0.0179 µM (active) | 0.327 µM (active) | 0.167 µM (active) | 0.345 µM (active) |
